Patent US20160045505A1, “COMPOUNDS AND COMPOSITIONS FOR THE TREATMENT OF PARASITIC DISEASES” (NOVARTIS AG, priority 2013, published 2016)
Read-outs that look alike come from different tables or passages of the source.

Experiments:
[1] = tested on: Leishmania donovani axenic amastigote parasites; test: Leishmania donovani axenic amastigote proliferation assay (Cell TiterGlo luminescence, 2 day incubation); type: cell-based; conditions: Leishmania donovani, read-out: L. donovani amastigotes EC50
[2] = tested on: L. donovani HU3 strain in mouse peritoneal macrophages; test: Assay for proliferation of Leishmania parasites in infected mouse peritoneal macrophages (SybrGreen staining, high-content imaging, 5 days); type: cell-based, Leishmania donovani; conditions: Leishmania donovani, Peritoneal macrophage, L. donovani in mouse peritoneal macrophages, read-out: L. donovani Macrophage EC50
[3] = tested on: Trypanosoma brucei Lister 427 strain, bloodstream form; test: Assay for proliferation of kinetoplastid parasite Trypanosoma brucei (Cell Titer Glo, 48 hours); type: cell-based; conditions: Trypanosoma brucei, read-out: T. brucei EC50
In short: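 Bloodstream-form T. brucei Lister 427 in HMI-9 medium was exposed to compound (DMSO vehicle) for 48 hours at 37° C, 5% CO2. Parasite growth was read as ATP by CellTiter-Glo luminescence, with EC50 calculated from percent inhibition.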

[4] = tested on: Trypanosoma cruzi amastigotes (Tulahuen strain expressing Lac-Z) cultured in 3T3 fibroblast cells; test: microbe, parasite or virus in culture; type: cell-based; conditions: Trypanosoma cruzi, TULAHUEN, Fibroblast, T. cruzi amastigotes in 3T3 fibroblast cells, read-out: T cruzi EC50
[5] = T. brucei Lister 427 bloodstream form
[6] = axenic amastigotes, inhibition of proliferation
[7] = T. brucei Lister 427 bloodstream form, inhibition of proliferation

Compound	EC50 ([1]; L. donovani axenic amastigotes) [nM]	EC50 [2] [nM]	EC50 [3, 5] [nM]	EC50 [4] [nM]	EC50 [1, 6] [nM]	EC50 ([2]; inhibition of proliferation) [nM]	EC50 [3, 7] [nM]	EC50 ([4]; inhibition of proliferation) [nM]	EC50 [3] [nM]
CCc1cnc2nc(-c3cc(NC(=O)c4oc(C)nc4C)ccc3F)cn2c1 [Compound 423]	90	217	35	48	–	–	–	–	–
CCOCC(=O)Nc1cnc2nc(-c3cc(NC(=O)N4CCCC4)ccc3F)cn2c1 [Compound 138]	–	–	–	–	549	3880	127	1950	–
Cc1nc(C)c(C(=O)Nc2ccc(F)c(-c3nc4ncc(-c5ccccc5)cn4c3F)c2)o1 [Compound 338]	–	–	–	–	47	101	40	18	–
CC(C)OC(=O)Nc1cnc2nc(-c3cc(NC(=O)N4CC[C@H](F)C4)ccc3Cl)cn2c1 [Compound 264]	–	–	–	–	4750	> 14000	4310	4720	–
Cc1ncoc1C(=O)Nc1ccc(F)c(-c2cn3cc(NC(=O)OC(C)C)cnc3n2)c1 [Compound 76]	–	–	–	–	305	4220	348	636	–
O=C(Nc1ccc(F)c(-c2cn3cc(-c4ccccn4)cnc3n2)c1)N1CC(F)(F)C1 [Compound 296, 3,3-difluoro-N-(4-fluoro-3-(6-(pyridin-2-yl)imidazo[1,2-a]pyrimidin-2-yl)phenyl)azetidine-1-carboxamide]	–	–	–	–	4	13	–	14	12
Cc1nc(C)c(C(=O)Nc2ccc(F)c(-c3cn4cc(NC(=O)C5(C)COC5)cnc4n3)c2)o1 [Compound 192]	–	–	–	–	3240	> 25100	1140	> 20000	–
CC(C)OC(=O)Nc1cnc2nc(-c3cc(NC(=O)c4ccc(Cl)s4)ccc3F)cn2c1 [Compound 66]	–	–	–	–	2810	16100	1840	444	–
COCCOc1cnc2nc(-c3cc(NC(=O)c4oc(C)nc4C)ccc3F)cn2c1 [Compound 547, N-(4-fluoro-3-(6-(2-methoxyethoxy)imidazo[1,2-a]pyrimidin-2-yl)phenyl)-2,4-dimethyloxazole-5-carboxamide]	856	4530	607	1360	–	–	–	–	–
Cc1nc(C)c(C(=O)Nc2ccc(F)c(-c3cn4cc(-c5cnn(C6CCN(C(=O)OC(C)(C)C)CC6)c5)cnc4n3)c2)o1 [Compound 384]	95	616	143	115	–	–	–	–	–
Cc1nc(C(=O)Nc2ccc(F)c(-c3cn4cc(NC(=O)OC(C)C)cnc4n3)c2)c(C(F)(F)F)o1 [Compound 69]	–	–	–	–	1400	3300	3120	403	–
CC(C)(C)OC(=O)N1CCOC(C(=O)Nc2ccc(F)c(-c3cn4cc(C5CC5)cnc4n3)c2)C1 (stereo not shown) [Compound 602]	> 25000	> 50000	> 50000	13600	–	–	–	–	–
Cc1nc(C)c(C(=O)Nc2ccc(F)c(-c3cn4cc(-c5ncc(F)cc5C)cnc4n3)c2)o1 [Compound 430, N-(4-fluoro-3-(6-(5-fluoro-3-methylpyridin-2-yl)imidazo[1,2-a]pyrimidin-2-yl)phenyl)-2,4-dimethyloxazole-5-carboxamide]	31	59	52	10	–	–	–	–	–
Cc1nc(C)c(C(=O)Nc2ccc(F)c(-c3cn4cc(-c5ccnn5C(C)C)cnc4n3)c2)o1 [Compound 390]	53	174	54	75	–	–	–	–	–
CN(C)c1cnc2nc(-c3cc(NC(=O)N4CC(F)(F)C4)ccc3F)cn2c1 [Compound 466]	158	207	44	183	–	–	–	–	–
CC(C)c1cnc2nc(-c3cc(NC(=O)N4CCC4)ccc3F)cn2c1 [Compound 411, N-(4-fluoro-3-(6-isopropylimidazo[1,2-a]pyrimidin-2-yl)phenyl)azetidine-1-carboxamide]	83	154	22	46	–	–	–	–	–
Cc1nc(C)c(C(=O)Nc2cccc(-c3cn4cc(-c5ccccc5)cnc4n3)c2)o1 [Compound 336]	–	–	–	–	74	168	86	45	–
Cc1ncc(C(=O)Nc2ccc(F)c(-c3cn4cc(C(F)(F)F)cnc4n3)c2)o1 [Compound 201]	–	–	–	–	58	208	460	126	–
Cc1nc(C)c(C(=O)Nc2ccc(F)c(-c3cn4cc(NC(=O)C5CNCCCO5)cnc4n3)c2)o1 (stereo not shown) [Compound 182]	–	–	–	–	> 25000	> 50000	10800	> 20000	–
Cc1ncc(C(=O)Nc2ccc(F)c(-c3cn4cc(-c5cccnc5)cnc4n3)c2)o1 [Compound 398]	186	424	317	572	–	–	–	–	–

Compound	EC50 ([1]; L. donovani axenic amastigotes) [nM]	EC50 [2] [nM]	EC50 [3, 5] [nM]	EC50 [4] [nM]	EC50 [1, 6] [nM]	EC50 ([2]; inhibition of proliferation) [nM]	EC50 [3, 7] [nM]	EC50 ([4]; inhibition of proliferation) [nM]	EC50 [3] [nM]
Cc1nc(C)c(C(=O)Nc2ccc(F)c(-c3cn4cc(-c5ncccc5F)cnc4n3)c2)o1 [Compound 449]	28	54	56	22	–	–	–	–	–
Cc1nc(C)c(C(=O)Nc2ccc(F)c(-c3cn4cc(NC5CC5)cnc4n3)c2)o1 [Compound 494]	3520	4060	1010	1300	–	–	–	–	–
COCCC(=O)Nc1cnc2nc(-c3cc(NC(=O)c4oc(C)nc4C)ccc3F)cn2c1 [Compound 166]	–	–	–	–	2280	> 46300	1010	> 20000	–
Cc1nc(C)c(C(=O)Nc2ccc(F)c(-c3cn4cc(-c5cscn5)cnc4n3)c2)o1 [Compound 374]	40	43	425	41	–	–	–	–	–
Cc1nc(C)c(C(=O)Nc2ccc(F)c(-c3cn4cc(-c5ccn(C)n5)cnc4n3)c2)o1 [Compound 363]	–	–	–	–	77	136	58	45	–
CN(C)C(=O)Nc1ccc(F)c(-c2cn3cc(C4=CCOCC4)cnc3n2)c1 [Compound 324]	–	–	–	–	288	1570	47	253	–
Cc1nc(C)c(C(=O)Nc2ccc(F)c(-c3cn4cc(C#CCCO)cnc4n3)c2)o1 [Compound 543, N-(4-fluoro-3-(6-(4-hydroxybut-1-yn-1-yl)imidazo[1,2-a]pyrimidin-2-yl)phenyl)-2,4-dimethyloxazole-5-carboxamide]	212	759	134	882	–	–	–	–	–
CCC(O)(C(=O)Nc1cnc2nc(-c3cc(NC(=O)N4CCCC4)ccc3F)cn2c1)C(F)(F)F (stereo not shown) [Compound 128]	–	–	–	–	1750	> 50000	171	> 20000	–
CC(C)OC(=O)Nc1cnc2nc(-c3cc(NC(=O)N(C)c4nccn4C)ccc3Cl)cn2c1 [Compound 256]	–	–	–	–	> 25000	> 50000	31600	> 20000	–
CC(C)OC(=O)Nc1cnc2nc(-c3cc(NC4=NC(C)(C)CO4)ccc3F)cn2c1 [Compound 500]	> 25000	> 17600	> 50000	> 20000	–	–	–	–	–
O=C(Nc1ccc(F)c(-c2cn3cc(-c4cccnc4)cnc3n2)c1)N1CCC1 [Compound 405]	94	361	13	271	–	–	–	–	–
CC(C)Nc1cnc2nc(-c3cc(NC(=O)N4CC[C@@H](F)C4)ccc3F)cn2c1 [Compound 461]	234	185	55	232	–	–	–	–	–
CCN(C)C(=O)Nc1ccc(F)c(-c2cn3cc(-c4ccccc4)cnc3n2)c1 [Compound 327]	–	–	–	–	167	459	102	50	–
CC(C)OC(=O)Nc1cnc2nc(-c3cc(NC(=O)C(C)C)ccc3F)cn2c1 [Compound 105]	–	–	–	–	2170	> 50000	1480	1460	–
CC(C)OC(=O)N(C)c1cnc2nc(-c3cc(N(C)C(=O)c4ccc(Cl)o4)ccc3F)cn2c1 [Compound 551, isopropyl (2-(5-(5-chloro-N-methylfuran-2-carboxamido)-2-fluorophenyl)imidazo[1,2-a]pyrimidin-6-yl)(methyl)carbamate]	11000	6940	9320	3280	–	–	–	–	–
Cc1nc(C)c(C(=O)Nc2ccc(F)c(-c3cn4cc(N(C)C)cnc4n3)c2)o1 [Compound 470]	252	689	159	148	–	–	–	–	–
CC(C)OC(=O)Nc1cnc2nc(-c3cc(NC(=O)N4CCC5(C4)CC5(F)F)ccc3Cl)cn2c1 (stereo not shown) [Compound 261]	–	–	–	–	4320	7030	1220	1900	–
Cc1nc(C)c(C(=O)Nc2ccc(F)c(-c3cn4cc(NC5=N[C@@H]6CCC[C@H]6O5)cnc4n3)c2)o1 [Compound 511]	1550	2280	590	3680	–	–	–	–	–
CON(C)C(=O)Nc1ccc(Cl)c(-c2cn3cc(NC(=O)OC(C)C)cnc3n2)c1 [Compound 214]	–	–	–	–	90	785	40	154	–
Cc1nc(C)c(C(=O)Nc2ccc(F)c(-c3cn4cc(-c5cn[nH]c5)cnc4n3)c2)o1 [Compound 386]	1500	> 50000	1550	> 20000	–	–	–	–	–
